Test results as given in patent US7084151B2 (Ligand Pharmaceuticals Incorporated, priority 2002, dated 2006).
Like-named read-outs stand apart in the source and are kept apart here.

Columns and labels:
[1] = molecular target: T1, PR (Homo sapiens, UniProt P06401); assay: Cotransfection assay, PR antagonist activity in CV-1 cells; type: cell-based; conditions: for Emax: percent maximal response relative to reference antagonist, read-out: PR Antagonist CV-1 Cells Efficacy
T1 construct: expressed in transfected cells; host or cells: CV-1 cells (African green monkey kidney fibroblasts), transiently transfected
T1 sequence (P06401 1-933): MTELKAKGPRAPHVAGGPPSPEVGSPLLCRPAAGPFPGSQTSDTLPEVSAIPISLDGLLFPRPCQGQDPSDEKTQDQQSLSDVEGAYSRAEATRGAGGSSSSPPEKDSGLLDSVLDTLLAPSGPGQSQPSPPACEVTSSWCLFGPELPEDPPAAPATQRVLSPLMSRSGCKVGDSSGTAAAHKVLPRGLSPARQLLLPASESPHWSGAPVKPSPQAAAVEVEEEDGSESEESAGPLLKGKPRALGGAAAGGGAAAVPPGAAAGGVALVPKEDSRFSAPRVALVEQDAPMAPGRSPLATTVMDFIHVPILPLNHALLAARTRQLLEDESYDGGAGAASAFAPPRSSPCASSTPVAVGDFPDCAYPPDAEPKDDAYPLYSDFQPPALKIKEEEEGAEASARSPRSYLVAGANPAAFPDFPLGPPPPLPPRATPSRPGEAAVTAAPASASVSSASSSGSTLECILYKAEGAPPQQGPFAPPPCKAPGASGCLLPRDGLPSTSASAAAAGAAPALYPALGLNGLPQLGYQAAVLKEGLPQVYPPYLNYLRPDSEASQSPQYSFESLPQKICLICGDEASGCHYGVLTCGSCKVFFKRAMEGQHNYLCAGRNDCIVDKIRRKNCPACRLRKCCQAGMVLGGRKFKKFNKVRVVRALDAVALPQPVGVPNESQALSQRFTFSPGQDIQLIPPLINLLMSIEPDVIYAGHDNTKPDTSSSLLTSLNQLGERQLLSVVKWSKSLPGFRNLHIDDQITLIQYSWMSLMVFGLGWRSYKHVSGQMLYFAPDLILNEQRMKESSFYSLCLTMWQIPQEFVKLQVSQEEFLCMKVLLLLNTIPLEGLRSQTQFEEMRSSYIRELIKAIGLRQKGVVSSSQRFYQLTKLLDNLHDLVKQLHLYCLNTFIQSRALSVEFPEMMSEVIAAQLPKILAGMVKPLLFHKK
Method: (§1) Briefly, the cotransfection assays were carried out in CV-1 cells (African green monkey kidney fibroblasts), which were transiently transfected, by the standard calcium phosphate coprecipitation procedure (Berger, et al., J. Steroid Biochem. Mol. Bio. 1992, 41, 733–738) with the Plasmid containing receptor, MTV-LUC reporter, pRS-β-Gal, and filler DNA (Rous sarcoma virus chloramphenicol acetyltransferase). […] All the cotransfection experiments were carried out in 96-well plates by automation (Beckman Biomomek automated workstation).

[2] = molecular target: T2, hPR-A (Homo sapiens, UniProt P06401); assay: Receptor competitive binding assay; conditions: read-out: PR Binding Ki
T2 sequence (P06401 1-769 isoform P06401-2): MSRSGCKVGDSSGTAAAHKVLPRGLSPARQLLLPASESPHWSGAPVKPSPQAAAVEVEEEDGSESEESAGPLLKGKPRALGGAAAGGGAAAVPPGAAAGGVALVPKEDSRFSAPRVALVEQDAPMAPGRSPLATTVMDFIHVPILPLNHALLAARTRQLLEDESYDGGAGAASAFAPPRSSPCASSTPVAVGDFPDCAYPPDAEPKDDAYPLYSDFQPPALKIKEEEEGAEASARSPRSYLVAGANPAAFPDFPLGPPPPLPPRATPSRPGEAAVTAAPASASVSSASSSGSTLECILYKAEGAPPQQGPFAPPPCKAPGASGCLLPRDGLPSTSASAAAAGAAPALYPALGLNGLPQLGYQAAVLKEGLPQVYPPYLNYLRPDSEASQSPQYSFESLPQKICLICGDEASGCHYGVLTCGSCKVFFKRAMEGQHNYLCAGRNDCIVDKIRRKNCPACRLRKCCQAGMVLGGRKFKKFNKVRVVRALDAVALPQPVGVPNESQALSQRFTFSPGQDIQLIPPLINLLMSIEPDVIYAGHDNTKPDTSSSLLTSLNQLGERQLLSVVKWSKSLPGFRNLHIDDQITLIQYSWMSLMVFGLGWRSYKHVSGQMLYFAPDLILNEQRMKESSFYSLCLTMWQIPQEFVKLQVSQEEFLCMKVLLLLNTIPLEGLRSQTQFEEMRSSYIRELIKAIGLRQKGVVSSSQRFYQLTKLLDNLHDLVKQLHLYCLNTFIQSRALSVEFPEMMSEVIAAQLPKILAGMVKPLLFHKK
From the text: The preparation of receptor binding assays for hPR-A was described in literature (Pathirana, et al., Mol. Pharm. 1995, 47, 630–635.)

[3] = molecular target: T1, PR; assay: Cotransfection assay, PR agonist activity in CV-1 cells; type: cell-based; conditions: for Emax: CV-1, read-out: PR Agonist CV-1 Cells Efficacy
Method: as §1

[4] = CV-1 cells, MTV-LUC reporter, read-out: PR Antagonist CV-1 Cells Potency (IC50)
[5] = CV-1 cells, MTV-LUC reporter, read-out: PR Agonist CV-1 Cells Potency (EC50)

Compound	IC50 [1, 4]	Emax ([1]; CV-1 cells)	Ki [2]	Emax [3]	EC50 [3, 5]	PR Agonist CV-1 Cells Efficacy ([3]; CV-1 cells, percent maximal response relative to progesterone)	IC50 [1]	EC50 [3]	melting point
CC1=CC(C)(C)Nc2ccc3c(c21)C(=C1SCCCS1)Oc1c(F)cccc1-3 [Compound 17, 7-fluoro-5-(1,3-dithia-2-cyclohexylidene)-1,2-dihydro-2,2,4-trimethyl-5H-chromeno[3,4-f]quinoline]	> 1000 nM	< 20%	4.3 nM	107%	11 nM	–	–	–	–
CC#C[C@]1(O)CC[C@H]2[C@@H]3CCC4=CC(=O)CCC4=C3[C@@H](c3ccc(N(C)C)cc3)C[C@@]21C [RU486, mifepristone, reference compound]	–	–	–	–	–	na (na = not active (i.e. efficacy of <20 and potency of >1,000))	–	–	–
CC1=CC(C)(C)Nc2ccc3c(c21)C(=C1SCCCS1)Oc1ccc(F)cc1-3 [Compound 10, 9-Fluoro-5-(1,3-dithia-2-cyclohexylidene)-1,2-dihydro-2,2,4-trimethyl-5H-chromeno[3,4-f]quinoline]	–	< 20%	6.3 nM	144%	–	–	> 1000 nM	2 nM	120 to 122 °C
CC1=CC(C)(C)Nc2ccc3c(c21)C(=C1C=CCCC1)Oc1c(F)cccc1-3 [Compound 23, 7-fluoro-5-(2-cyclohexenylidene)-1,2-dihydro-2,2,4-trimethyl-5H-chromeno[3,4-f]quinoline]	> 1000 nM	< 20%	22 nM	70%	35 nM	–	–	–	–
CC(=O)[C@H]1CC[C@H]2[C@@H]3CCC4=CC(=O)CC[C@]4(C)[C@H]3CC[C@]12C [Prog, progesterone, reference compound]	–	< 20%	–	100%	–	–	–	–	–
CN(C)c1ccc([C@H]2C[C@]3(C)[C@@H](CC[C@]3(O)CCCO)[C@@H]3CCC4=CC(=O)CCC4=C32)cc1 [ZK299, reference compound]	–	99%	–	< 20%	–	–	–	–	–

Second part, led by results:

IC50 [1, 4]	Emax ([1]; CV-1 cells)	Ki [2]	Emax [3]	EC50 [3, 5]	Compound	PR Agonist CV-1 Cells Efficacy ([3]; CV-1 cells, percent maximal response relative to progesterone)	IC50 [1]	EC50 [3]	melting point
–	–	74 nM	48%	38 nM	CC1=CC(C)(C)Nc2ccc3c(c21)C(=C1CCCCC1)Oc1c(F)cccc1-3 [Compound 19, 7-fluoro-5-cyclohexylidene-1,2-dihydro-2,2,4-trimethyl-5H-chromeno[3,4-f]quinoline]	–	–	–	–
> 1000 nM	< 20%	14 nM	56%	32 nM	COc1ccc2c(c1)OC(=C1SCCCS1)c1c-2ccc2c1C(C)=CC(C)(C)N2 [Compound 13, 8-methoxy-5-(1,3-dithia-2-cyclohexylidene)-1,2-dihydro-2,2,4-trimethyl-5H-chromeno[3,4-f]quinoline]	–	–	–	–
> 1000 nM	< 20%	39 nM	82%	16 nM	CC1=CC(C)(C)Nc2ccc3c(c21)C(=C1CCCCC1)Oc1c(F)cc(F)cc1-3 [Compound 20, 7,9-difluoro-5-cyclohexylidene-1,2-dihydro-2,2,4-trimethyl-5H-chromeno[3,4-f]quinoline]	–	–	–	–
–	–	–	45%	32 nM	CC1(C)C=Cc2c(ccc3c2C(=C2SCCCS2)Oc2c(F)cccc2-3)N1 [Compound 21, 7-fluoro-5-(1,3-dithia-2-cyclohexylidene)-1,2-dihydro-2,2-dimethyl-5H-chromeno[3,4-f]quinoline]	–	–	–	–
> 1000 nM	< 20%	3.7 nM	155%	5.3 nM	CC1=CC(C)(C)Nc2ccc3c(c21)C(=C1SCCCS1)Oc1c(F)cc(F)cc1-3 [Compound 15, 7,9-difluoro-5-(1,3-dithia-2-cyclohexylidene)-1,2-dihydro-2,2,4-trimethyl-5H-chromeno[3,4-f]quinoline]	–	–	–	–
